Results on 12 molecules are retold here after patent US20110183954A1, “TRICYCLIC 2,4-DIAMINO-L,3,5-TRIAZINE DERIVATIVES USEFUL FOR THE TREATMENT OF CANCER AND MYELOPROLIFERATIVE DISORDERS” (ASTRAZENECA AB, priority 2008, published 2011).

pIC50: −log10 of the molar value.

What all share (format): biochemical
For experiment [1], the target named is T1, human JAK2 (Homo sapiens, UniProt O60674). Briefly: Method 2 (JAK2): mobility shift assay on Caliper LC3000 reader, 5 mM ATP. More on the design: human JAK2 (amino acids 831-1132, PLAZA database pAZB0359) expressed in insect cells; GST (N); made in house; host or cells: insect cells. The settings on record: 0.3 nM JAK2 enzyme, 90 minutes, read-out: IC50 (JAK inhibitory activity, Method 2 (JAK2)). The text has this:
Alternatively, Janus kinase 2 (JAK2) activity may be determined by measuring the kinase's ability to phosphorylate a tyrosine residue within a peptide substrate using a mobility shift assay on a Caliper LC3000 reader (Caliper, Hopkinton, Mass.), which measures fluorescence of the phosphorylated and unphosphorylated substrate and calculates a ratiometric value to determine percent turnover.
To measure JAK2 kinase activity, an in-house purified enzyme may be used. The enzyme may be a N-terminal GST-tagged, recombinant, human JAK2 (amino acids 831-1132, PLAZA database pAZB0359) expressed in insect cells. After incubation of the kinase with a FAM labeled SRCtide substrate, adenosine triphosphate (ATP), and MgCl2 for 90 minutes at room temperature, the kinase reaction may be stopped by the addition of 36 mM ethylenediaminetetraacetic acid (EDTA). The reaction may be performed in 384 well microtitre plates and the reaction products may be detected using the Caliper LC3000 Reader.
Target sequence in this assay (O60674 831-1132): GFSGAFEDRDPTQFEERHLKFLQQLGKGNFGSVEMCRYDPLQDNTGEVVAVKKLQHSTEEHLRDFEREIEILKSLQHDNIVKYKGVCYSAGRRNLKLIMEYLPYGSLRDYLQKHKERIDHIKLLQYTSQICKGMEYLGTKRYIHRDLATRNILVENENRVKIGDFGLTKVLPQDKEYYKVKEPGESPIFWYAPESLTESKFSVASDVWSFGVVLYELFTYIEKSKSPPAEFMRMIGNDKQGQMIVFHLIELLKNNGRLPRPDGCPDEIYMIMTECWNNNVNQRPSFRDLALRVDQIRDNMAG

In another experiment the target is T2, JAK1 (Homo sapiens, UniProt P23458).
T2 construct: catalytic domain (amino acids 866-1154), GST-tagged, expressed in insect cells; GST; purchased Invitrogen; host or cells: insect cells
Nature of the experiment: Method 1 (JAK1): mobility shift assay on Caliper LC3000 reader. The settings on record: 3.5 nM JAK1 enzyme, 5 mM ATP, 90 minutes, room temperature; read-out: IC50 (JAK inhibitory activity, Method 1 (JAK1)). The text has this: Janus kinase 1 (JAK1) activity may be determined by measuring the kinase's ability to phosphorylate a tyrosine residue within a peptide substrate using a mobility shift assay on a Caliper LC3000 reader (Caliper, Hopkinton, Mass.), which measures fluorescence of the phosphorylated and unphosphorylated substrate and calculates a ratiometric value to determine percent turnover.
To measure JAK1 kinase activity, a commercially available purified enzyme may be used. The enzyme may be a recombinant human, catalytic domain (amino acids 866-1154), GST-tagged, expressed in insect cells (Invitrogen, Carlsbad, Calif.). After incubation of the kinase with a FITC labeled JAK1 substrate, adenosine triphosphate (ATP), and MgCl2 for 90 minutes at room temperature, the kinase reaction may be stopped by the addition of 36 mM ethylenediaminetetraacetic acid (EDTA). The reaction may be performed in 384 well microtitre plates and the reaction products may be detected using the Caliper LC3000 Reader.

Experiment [2] has as its target T1, human JAK2. Nature of the experiment: Method 1 (JAK2): Amplified Luminescent Proximity Assay (Alphascreen). Also noted: His6 (C); purchased Upstate Biotechnology; host or cells: baculovirus in Sf21 cells. The settings on record: 150 pM JAK2 enzyme, 5 mM ATP, 60 minutes, room temperature, read-out: IC50 (JAK inhibitory activity, Method 1 (JAK2)). The text has this:
JAK2 kinase activity may be determined by measuring the kinase's ability to phosphorylate synthetic tyrosine residues within a generic polypeptide substrate using an Amplified Luminescent Proximity Assay (Alphascreen) technology (PerkinElmer, 549 Albany Street, Boston, Mass.).
To measure JAK2 kinase activity, a commercially available purified enzyme may be used. The enzyme may be a C-terminal His6-tagged, recombinant, human JAK2, amino acids 808-end, (Genbank Accession number NM 004972) expressed by baculovirus in Sf21 cells (Upstate Biotechnology MA). After incubation of the kinase with a biotinylated substrate and adenosine triphosphate (ATP) for 60 minutes at room temperature, the kinase reaction may be stopped by the addition of 30 mM ethylenediaminetetraacetic acid (EDTA). The reaction may be performed in 384 well microtitre plates and the reaction products may be detected with the addition of streptavidin coated Donor Beads and phosphotyrosine-specific antibodies coated Acceptor Beads using the EnVision Multilabel Plate Reader after an overnight incubation at room temperature.
Target sequence in this assay (O60674 808-1132 limits assumed): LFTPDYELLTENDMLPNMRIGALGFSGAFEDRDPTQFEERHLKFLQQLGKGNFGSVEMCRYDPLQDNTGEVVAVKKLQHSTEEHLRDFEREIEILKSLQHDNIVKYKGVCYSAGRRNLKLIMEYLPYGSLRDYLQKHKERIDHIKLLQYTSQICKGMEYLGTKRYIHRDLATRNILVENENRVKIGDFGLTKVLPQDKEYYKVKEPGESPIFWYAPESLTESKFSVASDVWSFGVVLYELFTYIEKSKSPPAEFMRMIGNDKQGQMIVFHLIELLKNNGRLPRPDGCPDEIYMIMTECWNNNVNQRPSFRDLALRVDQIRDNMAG

Experiment [3] addresses T1, human JAK2. Briefly: Method 3 (JAK2): mobility shift assay on Caliper LC3000 reader, 15 μM ATP. Also noted: human JAK2 (amino acids 831-1132, PLAZA database pAZB0359) expressed in insect cells; GST (N); made in house; host or cells: insect cells. The settings on record: 0.5 nM JAK2 enzyme, 90 minutes, read-out: IC50 (JAK inhibitory activity, Method 3 (JAK2)). As to the method:
Janus kinase 2 (JAK2) activity was determined by measuring the kinase's ability to phosphorylate a tyrosine residue within a peptide substrate using a mobility shift assay on a Caliper LC3000 reader (Caliper, Hopkinton, Mass.), which measures fluorescence of the phosphorylated and unphosphorylated substrate and calculates a ratiometric value to determine percent turnover.
To measure JAK2 kinase activity, an in-house purified enzyme was used. The enzyme was N-terminal GST-tagged, recombinant, human JAK2 (amino acids 831-1132, PLAZA database pAZB0359) expressed in insect cells. After incubation of the kinase with a FAM labeled SRCtide substrate, adenosine triphosphate (ATP), and MgCl2 for 90 minutes at room temperature, the kinase reaction was stopped by the addition of 36 mM ethylenediaminetetraacetic acid (EDTA). The reaction was performed in 384 well microtitre plates and the reaction products were detected using the Caliper LC3000 Reader.
Target sequence in this assay (O60674 831-1132): as the sequence (O60674 831-1132) above

T2 sequence (P23458 866-1154): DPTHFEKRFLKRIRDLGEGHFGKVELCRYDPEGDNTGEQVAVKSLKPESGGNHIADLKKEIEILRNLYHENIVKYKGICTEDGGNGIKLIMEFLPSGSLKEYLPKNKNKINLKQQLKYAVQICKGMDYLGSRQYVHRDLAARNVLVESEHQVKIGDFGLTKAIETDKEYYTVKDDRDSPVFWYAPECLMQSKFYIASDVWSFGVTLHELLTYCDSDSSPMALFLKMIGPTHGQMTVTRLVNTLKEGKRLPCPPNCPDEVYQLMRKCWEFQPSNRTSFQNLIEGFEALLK

For the molecule `Cn1cnc(Nc2nc(NC(c3ccc(F)cc3)c3nccn3C)nc(N3CCOCC3)n2)c1` (single isomer, unassigned) [Example 25b, N-[(4-Fluorophenyl)(1-methyl-1H-imidazol-2-yl)methyl]-N′-(1-methyl-1H-imidazol-4-yl)-6-morpholin-4-yl-1,3,5-triazine-2,4-diamine], the pIC50 – broadly, −log10 of the IC50, conventionally taken in molar units – on human JAK2 [1] was under 4.52; on JAK1, 4.52.

On to `C[C@H](Nc1nc(Nc2cn(C)cn2)nc(N2CCOCC2)n1)c1ccc(Cl)cc1` [Example 29, N-[(1S)-1-(4-Chlorophenyl)ethyl]-N′-(1-methyl-1H-imidazol-4-yl)-6-morpholin-4-yl-1,3,5-triazine-2,4-diamine], for which the pIC50 is 8.40 on human JAK2 [2] and 6.29 at JAK1.

As for `[2H]C([2H])([2H])n1cnc(Nc2nc(NC(C)c3ncc(F)cc3F)nc(N3C([2H])([2H])C([2H])([2H])OC([2H])([2H])C3([2H])[2H])n2)c1` (single isomer, unassigned) [Example 13b, N-[1-(3,5-Difluoropyridin-2-yl)ethyl]-N′-[1-(^2H3)methyl-1H-imidazol-4-yl]-6-(^2H8)morpholin-4-yl-1,3,5-triazine-2,4-diamine], the pIC50 at human JAK2 [3] is over 8.52.

In the case of `Cn1cnc(Nc2nc(NC(c3ccc(F)cc3)C3CCCC3)nc(N3CCOCC3)n2)c1` (centres unmarked) [Example 27, N-[Cyclopentyl(4-fluorophenyl)methyl]-N′-(1-methyl-1H-imidazol-4-yl)-6-morpholin-4-yl-1,3,5-triazine-2,4-diamine], the pIC50 on human JAK2 [1] was 6.02; at JAK1 it was 5.70.

`[2H]C1([2H])OC([2H])([2H])C([2H])([2H])N(c2nc(Nc3cn(C)cn3)nc(NC(C)c3ncc(F)cc3F)n2)C1([2H])[2H]` (single isomer, unassigned) [Example 11b, N-[1-(3,5-Difluoropyridin-2-yl)ethyl]-N′-(1-methyl-1H-imidazol-4-yl)-6-(^2H8)morpholin-4-yl-1,3,5-triazine-2,4-diamine]: the pIC50 is 7.68 on human JAK2 [1] and 7.82 at JAK1.

Consider `[2H]C([2H])([2H])n1cnc(Nc2nc(NC(C)c3ncc(F)cc3F)nc(N3CCOCC3)n2)c1` (single isomer, unassigned) [Example 12b, N-[1-(3,5-Difluoropyridin-2-yl)ethyl]-N′-[1-(^2H3)methyl-1H-imidazol-4-yl]-6-morpholin-4-yl-1,3,5-triazine-2,4-diamine], for which the pIC50 at human JAK2 [3] is over 8.52.

Regarding `Cn1cnc(Nc2nc(NC(CNC(=O)OC(C)(C)C)c3ccc(F)cc3)nc(N3CCOCC3)n2)c1` (single isomer, unassigned) [Example 24a, tert-Butyl [2-(4-fluorophenyl)-2-({4-[(1-methyl-1H-imidazol-4-yl)amino]-6-morpholin-4-yl-1,3,5-triazin-2-yl}amino)ethyl]carbamate], the pIC50 at human JAK2 [1] is 7.14; at JAK1, 7.08.

Take `Cn1cnc(Nc2nc(NC(CNC(=O)OC(C)(C)C)c3ccc(F)cc3)nc(N3CCOCC3)n2)c1` (single isomer, unassigned) [Example 24b, tert-Butyl [2-(4-fluorophenyl)-2-({4-[(1-methyl-1H-imidazol-4-yl)amino]-6-morpholin-4-yl-1,3,5-triazin-2-yl}amino)ethyl]carbamate]: the pIC50 on human JAK2 [1] is 5.77; at JAK1, 5.99.

As for `[2H]C1([2H])OC([2H])([2H])C([2H])([2H])N(c2nc(Nc3cn(C)cn3)nc(NC(C)c3ncc(F)cc3F)n2)C1([2H])[2H]` (single isomer, unassigned) [Example 11a, N-[1-(3,5-Difluoropyridin-2-yl)ethyl]-N′-(1-methyl-1H-imidazol-4-yl)-6-(^2H8)morpholin-4-yl-1,3,5-triazine-2,4-diamine], the pIC50 at human JAK2 [1] is 6.01; at JAK1, 6.11.

On to `[2H]C([2H])([2H])n1cnc(Nc2nc(NC(C)c3ncc(F)cc3F)nc(N3CCOCC3)n2)c1` (single isomer, unassigned) [Example 12a, N-[1-(3,5-Difluoropyridin-2-yl)ethyl]-N′-[1-(^2H3)methyl-1H-imidazol-4-yl]-6-morpholin-4-yl-1,3,5-triazine-2,4-diamine], for which the pIC50 on human JAK2 [3] was 6.86.

For `[2H]C([2H])([2H])n1cnc(Nc2nc(NC(C)c3ncc(F)cc3F)nc(N3C([2H])([2H])C([2H])([2H])OC([2H])([2H])C3([2H])[2H])n2)c1` (single isomer, unassigned) [Example 13a, N-[1-(3,5-Difluoropyridin-2-yl)ethyl]-N′-[1-(^2H3)methyl-1H-imidazol-4-yl]-6-(^2H8)morpholin-4-yl-1,3,5-triazine-2,4-diamine], on human JAK2 [3], the pIC50 is 6.74.

As to `C[C@H](Nc1nc(Nc2cn(C)cn2)nc(N2CCOCC2)n1)c1ccc(F)cc1` [Example 30, N-[(1S)-1-(4-fluorophenyl)ethyl]-N′-(1-methyl-1H-imidazol-4-yl)-6-morpholin-4-yl-1,3,5-triazine-2,4-diamine], the pIC50 was over 8.52 on human JAK2 [2] and 7.19 on JAK1.
